In patent US20230183237A1, “COMPETITIVE AND NONCOMPETITIVE INHIBITORS OF THE MUSCARINIC ACETYLCHOLINE RECEPTOR M5” (Vanderbilt University, priority 2020, published 2023) one finds IC50 data, which are given here for 31 compounds.

pIC50: −log10 of the molar value. Read-outs that look alike come from different tables or passages of the source.

This assay deals with T1, hM5 (Homo sapiens, UniProt P08912).
T1 construct: expressed in transfected cells
T1 sequence (P08912 1-532): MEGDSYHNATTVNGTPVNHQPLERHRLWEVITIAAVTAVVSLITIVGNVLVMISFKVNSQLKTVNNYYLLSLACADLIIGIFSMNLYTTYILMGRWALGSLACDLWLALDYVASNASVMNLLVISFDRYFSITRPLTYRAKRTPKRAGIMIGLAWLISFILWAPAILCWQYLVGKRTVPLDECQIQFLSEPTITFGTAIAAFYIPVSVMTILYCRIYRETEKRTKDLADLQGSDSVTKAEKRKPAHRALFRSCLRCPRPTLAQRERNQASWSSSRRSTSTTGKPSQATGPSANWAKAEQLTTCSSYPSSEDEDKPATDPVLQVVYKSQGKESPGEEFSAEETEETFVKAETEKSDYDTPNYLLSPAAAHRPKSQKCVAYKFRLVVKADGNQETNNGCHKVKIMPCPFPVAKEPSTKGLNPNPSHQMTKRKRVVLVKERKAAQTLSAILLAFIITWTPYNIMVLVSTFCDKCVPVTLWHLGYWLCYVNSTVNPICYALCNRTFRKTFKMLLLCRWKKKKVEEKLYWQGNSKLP
Briefly: Calcium mobilization concentration-response (IC50 vs EC80 acetylcholine), CHO hM5. In kind it is cell-based. Summed up: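 CHO cells stably expressing hM5, dye-loaded, in HBSS/20 mM HEPES/2.5 mM probenecid, pH 7.4. Compounds were pre-incubated 140 s before an EC80 acetylcholine challenge, with calcium flux read kinetically.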

[1] abbreviates: CELL LINE hM5, vs EC80 acetylcholine, read-out: IC50.
Where [2] appears, read: CELL LINE hM5, calcium mobilization, EC80 acetylcholine addition, read-out: IC50.

Turning to `[2H]C([2H])([2H])Oc1c(S(=O)(=O)N2CCC(c3cn4ncnc4cc3C(F)(F)F)CC2)cnn1C` [Compound 615, 6-(1-((5-(methoxy-d3)-1-methyl-1H-pyrazol-4-yl)sulfonyl)piperidin-4-yl)-7-(trifluoromethyl)-[1,2,4]triazoto[1,5-a]pyridine], under setting [1], the pIC50 was 6.94.

`Cc1c(S(=O)(=O)N2CCC(F)(c3cn4ncnc4cc3F)CC2)cnn1C` [Compound 501, 6-(1-((1,5-dimethyl-1H-pyrazol-4-yl)sulfonyl)-4-fluoropiperidin-4-yl)-7-fluoro-[1,2,4]triazolo[1,5-a]pyridine]: the pIC50 under setting [1] was 5.68.

As to `Cc1ccncc1C1CCN(S(=O)(=O)c2cnn(C)c2C)CC1` [Compound 384, 3-(1-((1,5-dimethyl-1H-pyrazol-4-yl)sulfonyl)piperidin-4-yl)-4-methylpyridine], the pIC50 under setting [2] was 5.24.

As to `O=S(=O)(c1cc2c(cc1F)OCC2)N1CCC(c2cn3ncnc3cc2F)CC1` [Compound 106, 7-fluoro-6-(1-((6-fluoro-2,3-dihydrobenzofuran-5-yl)sulfonyl)piperidin-4-yl)-[1,2,4]triazolo[1,5-a]pyridine], under setting [2], the pIC50 is under 5.00.

`Cc1cc(S(=O)(=O)N2CCC(c3cn4ncnc4cc3C(F)(F)F)CC2)c(C)s1` [Compound 280, 6-(1-((2,5-dimethylthiophen-3-yl)sulfonyl)piperidin-4-yl)-7-(trifluoromethyl)-[1,2,4]triazolo[1,5-a]pyridine]: the pIC50 under setting [2] was 5.72.

As to `CO[C@@H]1CN(S(=O)(=O)c2cnn(C)c2Cl)CC[C@H]1c1cn2ncnc2cc1C` (racemic) [Compound 413, (rac)-6-(trans-1-((5-chloro-1-methyl-1H-pyrazol-4-yl)sulfonyl)-3-methoxypiperidin-4-yl)-7-methyl-[1,2,4]triazolo[1,5-a]pyridine], the pIC50 under setting [1] was 6.57.

In the case of `Cc1cc2ncnn2cc1C1=CC2CCC(C1)N2S(=O)(=O)c1ccc2c(c1)CCO2` (stereo not shown) [Compound 190, 6-(8-((2,3-dihydrobenzofuran-5-yl)sulfonyl)-8-azabicyclo[3.2.1]oct-2-en-3-yl)-7-methyl-[1,2,4]triazolo[1,5-a]pyridine], the pIC50 is under 5.00.

With `O=S(=O)(c1cnn2c1CCCC2)N1CCC(c2cn3ncnc3cc2F)CC1` [Compound 237, 7-fluoro-6-(1-((4,5,6,7-tetrahydropyrazolo[1,5-a]pyridin-3-yl)sulfonyl)piperidin-4-yl)-[1,2,4]triazolo[1,5-a]pyridine], the pIC50 under setting [2] is 7.48.

`Cc1cc2nccn2nc1C1CCN(S(=O)(=O)c2cnn3c2CCCC3)CC1` [Compound 247, 7-methyl-6-(1-((4,5,6,7-tetrahydropyrazolo[1,5-a]pyridin-3-yl)sulfonyl)piperidin-4-yl)imidazo[1,2-b]pyridazine]: the pIC50 under setting [2] was 7.72.

Take `Cc1c(C2=CCN(S(=O)(=O)c3ccc4c(c3)CCO4)CC2)cnc2ncnn12` [Compound 244, 6-(1-((2,3-dihydrobenzofuran-5-yl)sulfonyl)-1,2,3,6-tetrahydropyridin-4-yl)-7-methyl-[1,2,4]triazolo[1,5-a]pyrimidine]: the pIC50 under setting [2] is under 5.00.

Turning to `O=S(=O)(c1cnn2c1NCCC2)N1CCC(c2cn3ncnc3cc2F)CC1` [Compound 253, 7-fluoro-6-(1-((4,5,6,7-tetrahydropyrazolo[1,5-a]pyrimidin-3-yl)sulfonyl)piperidin-4-yl)-[1,2,4]triazolo[1,5-a]pyridine], under setting [2], the pIC50 is 7.24.

Turning to `O=S(=O)(c1ccc2c(c1)CCO2)N1CCC(c2ccc3occc3n2)CC1` [Compound 28, 5-(1-((2,3-dihydrobenzofuran-5-yl)sulfonyl)piperidin-4-yl)furo[3,2-b]pyridine], the negative logarithm of the IC50 (pIC50) under setting [2] is under 5.00.

As to `COc1cc2ncnn2cc1C1CCN(S(=O)(=O)c2cc3c(cc2C)OCC3C)CC1` (stereo not shown) [Compound 88, 6-(1-((3,6-dimethyl-2,3-dihydrobenzofuran-5-yl)sulfonyl)piperidin-4-yl)-7-methoxy-[1,2,4]triazolo[1,5-a]pyridine], the pIC50 under setting [2] was 6.09.

As to `Cc1cc2ncnn2nc1C1CCN(S(=O)(=O)c2cc3c(cc2F)OCC3)CC1` [Compound 181, 6-(1-((6-fluoro-2,3-dihydrobenzofuran-5-yl)sulfonyl)piperidin-4-yl)-7-methyl-[1,2,4]triazolo[1,5-b]pyridazine], the pIC50 under setting [2] was under 5.00.

Regarding `COc1c(S(=O)(=O)N2CCC(F)(c3cn4ncnc4cc3C)CC2)cnn1C` [Compound 586, 6-(4-fluoro-1-((5-methoxy-1-methyl-1H-pyrazol-4-yl)sulfonyl)piperidin-4-yl)-7-methyl-[1,2,4]triazolo[1,5-a]pyridine], the negative logarithm of the IC50 (pIC50) under setting [1] was 6.83.

`Cc1cc2ncnn2cc1C1CCN(S(=O)(=O)c2ccc3c(c2)N(C)CCO3)CC1` [Compound 121, 4-methyl-6-((4-(7-methyl-[1,2,4]triazolo[1,5-a]pyridin-6-yl)piperidin-1-yl)sulfonyl)-3,4-dihydro-2H-benzo[b][1,4]oxazine]: under setting [2], the pIC50 is 6.46.

On to `Cc1ncc(S(=O)(=O)N2CCC(c3ccc4ncnn4c3)CC2)s1` [Compound 480, 5-((4-([1,2,4]triazolo[1,5-a]pyridin-6-yl)piperidin-1-yl)sulfonyl)-2-methylthiazole], for which the pIC50 under setting [1] is under 5.00.

`CCc1cc2ncnn2cc1C1CCN(S(=O)(=O)c2cnc(Cl)s2)CC1` [Compound 513, 2-chloro-5-((4-(7-ethyl-[1,2,4]triazolo[1,5-a]pyridin-6-yl)piperidin-1-yl)sulfonyl)thiazole]: under setting [1], the pIC50 is 5.32.

As to `Cc1cc2nccnc2cc1C1CCN(S(=O)(=O)c2cnn(C)c2Cl)CC1` [Compound 424, 6-(1-((5-chloro-1-methyl-1H-pyrazol-4-yl)sulfonyl)piperidin-4-yl)-7-methylquinoxaline], the pIC50 under setting [1] is 7.26.

Turning to `Cc1cc2nccn2nc1C1CCN(S(=O)(=O)c2cn(C)nc2C)CC1` [Compound 55, 6-(1-((1,3-dimethyl-1H-pyrazol-4-yl)sulfonyl)piperidin-4-yl)-7-methylimidazo[1,2-b]pyridazine], under setting [2], the pIC50 is 5.25.

On to `Cc1cc2c(cc1C1CCN(S(=O)(=O)c3cnn4c3CCC4)CC1)OCO2` [Compound 374, 3-((4-(6-methylbenzo[d][1,3]dioxol-5-yl)piperidin-1-yl)sulfonyl)-5,6-dihydro-4H-pyrrolo[1,2-b]pyrazole], for which the pIC50 under setting [2] is 8.15.

Turning to `Cc1ncc(S(=O)(=O)N2CC=C(c3cc4ncnn4cc3Cl)CC2)n1C` [Compound 223, 6-chloro-7-(1-((1,2-dimethyl-1H-imidazol-5-yl)sulfonyl)-1,2,3,6-tetrahydropyridin-4-yl)-[1,2,4]triazolo[1,5-a]pyridine], the negative-log IC50 (pIC50) under setting [2] was 6.18.

As for `Cc1cc2ncnn2cc1C1CCN(S(=O)(=O)c2c(C)nn(C)c2Cl)CC1` [Compound 138, 6-(1-((5-chloro-1,3-dimethyl-1H-pyrazol-4-yl)sulfonyl)piperidin-4-yl)-7-methyl-[1,2,4]triazolo[1,5-a]pyridine], under setting [2], the pIC50 was 7.59.

For the compound `Cc1cc2ncnn2cc1C1CC2CCC(C1)N2S(=O)(=O)c1cnn2c1CCC2` (stereo not shown) [Compound 193, 6-(8-((5,6-dihydro-4H-pyrrolo[1,2-b]pyrazol-3-yl)sulfonyl)-8-azabicyclo[3.2.1]octan-3-yl)-7-methyl-[1,2,4]triazolo[1,5-a]pyridine], the negative-log IC50 (pIC50) was 5.80.

In the case of `Cc1nc2cc(C)c(C3CCN(S(=O)(=O)c4ccc5c(c4)C(C)CO5)CC3)cn2n1` (stereo not shown) [Compound 89, 2,7-dimethyl-6-(1-((3-methyl-2,3-dihydrobenzofuran-5-yl)sulfonyl)piperidin-4-yl)-[1,2,4]triazolo[1,5-a]pyridine], the pIC50 under setting [2] is 5.68.

`Cc1c(C2CCN(S(=O)(=O)c3cnn(C)c3C(F)F)CC2)cn2ncnc2c1F` [Compound 307, 6-(1-((5-(Difluoromethyl)-1-methyl-1H-pyrazol-4-yl)sulfonyl)piperidin-4-yl)-8-fluoro-7-methyl-[1,2,4]triazolo[1,5-a]pyridine]: under setting [2], the pIC50 is 7.77.

In the case of `Cn1ncc(S(=O)(=O)N2CCC(c3cn4ncnc4cc3C(F)(F)F)CC2)c1C#N` [Compound 409, 1-methyl-4-((4-(7-(trifluoromethyl)-[1,2,4]triazolo[1,5-a]pyridin-6-yl)piperidin-1-yl)sulfonyl)-1H-pyrazole-5-carbonitrile], under setting [1], the pIC50 was 7.23.

Take `Cc1cc2ncnn2cc1C1(O)CCN(S(=O)(=O)c2cnc(C)n2C)CC1` [Compound 309, 1-((1,2-dimethyl-1H-imidazol-5-yl)sulfonyl)-4-(7-methyl-[1,2,4]triazolo[1,5-a]pyridin-6-yl)piperidin-4-ol]: the pIC50 under setting [2] is under 5.00.

In the case of `Cc1cc2c(cc1C1CCN(S(=O)(=O)c3cnn(C)c3C)CC1)OCO2` [Compound 371, 1-((1,5-dimethyl-1H-pyrazol-4-yl)sulfonyl)-4-(6-methylbenzo[d][1,3]dioxol-5-yl)piperidine], the pIC50 under setting [2] was 7.77.

For `Cc1cc2nccn2cc1C1CCN(S(=O)(=O)c2ccc3c(c2)CCO3)CC1` [Compound 66, 6-(1-((2,3-dihydrobenzofuran-5-yl)sulfonyl)piperidin-4-yl)-7-methylimidazo[1,2-a]pyridine], the pIC50 under setting [2] was 5.89.

In the case of `O=S(=O)(c1ccc2c(c1)CCO2)N1CCC(c2ccncc2)CC1` [Compound 2, 4-(1-((2,3-dihydrobenzofuran-5-yl)sulfonyl)piperidin-4-yl)pyridine], the pIC50 under setting [2] was under 5.00.
